Laboratory results: the supplement of paper PMC10307832

How the values were obtained:
Assay in all cases: relative viability (nuclei count vs DMSO), 5 days (fraction); higher = more cells survive
[1] = compound: CC1=C(CC(=O)O)c2cc(F)ccc2/C1=C\c1ccc([S+](C)[O-])cc1 [Sulindac] + CC(C)C[C@H](NC(=O)[C@H](Cc1ccccc1)NC(=O)c1cnccn1)B(O)O [Bortezomib] (partner 0.002 µM)
Summary of the method: (§1)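 Lung cancer cell lines in 1536-well plates got either a single drug or a fixed anchor-drug dose together with five library-drug doses (not always all listed) in √10 steps, by pin tool, on the day after seeding. Nuclei were counted after 5 days, and relative viability is the treated-to-vehicle ratio of nuclei counts. Values are medians of duplicate plates.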

[2] = compound: CN[C@@H]1C[C@H]2O[C@@](C)([C@@H]1OC)n1c3ccccc3c3c4c(c5c6ccccc6n2c5c31)C(=O)NC4 [Staurosporine] + C[C@]1(O)C[C@@H](c2nc(-c3ccc4ccc(-c5ccccc5)nc4c3)c3c(N)nccn32)C1 [Linsitinib] (partner 1 µM)
Summary of the method: as §1

[3] = compound: O=c1[nH]cc(F)c(=O)[nH]1 [5-Fluorouracil] + COc1cccc2cc(-c3nc([C@H]4CC[C@H](C(=O)O)CC4)n4ncnc(N)c34)[nH]c12 [OSI-027] (partner 0.5 µM)
Summary of the method: as §1

[4] = compound: CC1=C(CC(=O)O)c2cc(F)ccc2/C1=C\c1ccc([S+](C)[O-])cc1 [Sulindac] + CC(=O)c1c(C)c2cnc(Nc3ccc(N4CCNCC4)cn3)nc2n(C2CCCC2)c1=O [Palbociclib] (partner 0.5 µM)
Summary of the method: as §1

Row | Cell Line | relative viability ([1]; first compound 0.08 µM) | relative viability ([1]; first compound 0.253 µM) | relative viability ([1]; first compound 2.53 µM) | relative viability ([1]; first compound 8 µM) | relative viability ([2]; first compound 0.005 µM) | relative viability ([2]; first compound 0.01581 µM) | relative viability ([2]; first compound 0.05 µM) | relative viability ([2]; first compound 0.1581 µM) | relative viability ([2]; first compound 0.5 µM) | relative viability ([3]; first compound 0.02 µM) | relative viability ([3]; first compound 0.2 µM) | relative viability ([3]; first compound 0.6325 µM) | relative viability ([3]; first compound 2 µM) | relative viability ([4]; first compound 0.08 µM) | relative viability ([4]; first compound 0.253 µM) | relative viability ([4]; first compound 0.8 µM) | relative viability ([4]; first compound 2.53 µM) | relative viability ([4]; first compound 8 µM) | relative viability ([1]; first compound 0.8 µM)
1 | LCLC-97TM1 | 0.861 | 0.946 | 0.788 | 0.806 | 0.237 | 0.163 | 0.163 | 0.207 | 0.144 | 0.392 | 0.531 | 0.557 | 0.379 | 0.201 | 0.244 | 0.203 | 0.212 | 0.277 | –
2 | LCLC-103H | 1.24 | 1.11 | 1.05 | 1.21 | 1.25 | 0.717 | 0.352 | 0.206 | 0.212 | 0.503 | 0.59 | 0.379 | 0.311 | 0.465 | 0.496 | 0.478 | 0.453 | 0.424 | 0.948
3 | LOU-NH91 | 0.554 | 0.516 | 0.531 | 0.459 | 0.979 | 0.744 | 0.63 | 0.365 | 0.274 | 0.694 | 0.788 | 0.692 | 0.432 | 0.473 | 0.535 | 0.536 | 0.521 | 0.571 | 0.601
4 | LU99A | 1.22 | 1.09 | 0.91 | 1.19 | 0.441 | 0.212 | 0.201 | 0.182 | 0.14 | 0.262 | 0.272 | 0.311 | 0.223 | 0.439 | 0.409 | 0.389 | 0.376 | 0.417 | 1.11
5 | LXF-289 | 1.06 | 1.04 | 1.04 | 0.974 | 0.846 | – | 0.203 | 0.1 | 0.0809 | 0.808 | 0.612 | 0.356 | 0.258 | 0.685 | 0.672 | 0.556 | 0.659 | 0.624 | 0.991
6 | NCI-H23 | 0.991 | 1.26 | 1.25 | 1.27 | 0.419 | 0.234 | 0.213 | 0.219 | 0.155 | 0.618 | 0.56 | 0.388 | 0.252 | 0.613 | 0.549 | 0.495 | 0.505 | 0.589 | 0.58
7 | NCI-H322M | 1.22 | 1.33 | 1.3 | 1.38 | 1.12 | 0.648 | 0.56 | 0.427 | 0.458 | 0.534 | 0.563 | 0.486 | 0.449 | 0.436 | 0.462 | 0.489 | 0.474 | 0.46 | 1.19
8 | NCI-H441 | 0.594 | 0.54 | 0.422 | 1.11 | 0.304 | 0.126 | 0.153 | 0.153 | 0.141 | 0.779 | 0.523 | 0.322 | 0.326 | 0.193 | 0.183 | 0.188 | 0.207 | 0.195 | 0.458
9 | NCI-H460 | – | 1.19 | 1.12 | 1.67 | 0.406 | 0.169 | 0.0258 | 0.0051 | 0.0055 | 0.803 | 0.35 | 0.0996 | 0.0548 | 0.199 | 0.176 | 0.147 | 0.239 | 0.148 | –
10 | NCI-H520 | 0.585 | 0.599 | 0.399 | 0.764 | 1.05 | 0.824 | 0.604 | 0.213 | 0.128 | 0.191 | 0.294 | 0.252 | 0.226 | 0.231 | 0.239 | 0.221 | 0.244 | 0.278 | 0.51
11 | NCI-H647 | 1.02 | 1.13 | 0.936 | 1.05 | 0.616 | 0.361 | 0.22 | 0.112 | 0.0579 | 0.616 | 0.724 | 0.464 | 0.378 | 0.462 | 0.469 | 0.339 | 0.431 | 0.439 | 0.667
12 | NCI-H650 | 0.845 | 0.877 | 0.897 | 1.08 | 0.472 | 0.289 | 0.249 | 0.197 | 0.177 | 0.493 | 0.357 | 0.362 | 0.267 | 0.313 | 0.347 | 0.32 | 0.28 | 0.402 | 0.862
13 | NCI-H661 | 0.726 | 0.769 | 0.852 | 0.885 | 0.458 | 0.384 | 0.258 | 0.245 | 0.226 | 0.674 | – | 0.661 | 0.691 | 0.405 | 0.433 | 0.458 | 0.376 | 0.449 | 0.688
14 | NCI-H727 | 0.822 | 0.884 | 0.742 | 0.912 | 0.225 | 0.234 | 0.268 | 0.277 | 0.129 | 0.639 | 0.651 | 0.647 | 0.574 | 0.621 | 0.643 | 0.566 | 0.627 | 0.667 | 0.665
15 | NCI-H838 | 0.951 | 0.774 | 0.628 | 0.76 | 0.248 | 0.153 | 0.18 | 0.164 | 0.099 | 0.42 | 0.373 | 0.252 | 0.209 | 0.262 | 0.234 | 0.195 | 0.226 | 0.223 | 0.512
16 | NCI-H1355 | 1.27 | 1.23 | 1.24 | 1.3 | 0.908 | 0.543 | 0.24 | 0.269 | 0.223 | 0.465 | 0.4 | 0.274 | 0.268 | 0.335 | 0.43 | 0.327 | 0.395 | 0.379 | 1.12
17 | NCI-H1437 | 0.553 | 0.767 | 0.418 | 0.688 | – | 0.43 | 0.255 | 0.128 | 0.0812 | 0.495 | 0.23 | 0.205 | 0.188 | 0.358 | 0.296 | 0.294 | 0.314 | 0.333 | 0.293
